In patent publication US20190365675A1, “COMPOSITIONS FOR THE PREVENTION AND/OR TREATMENT OF ALCOHOL USE DISORDERS” (SERVICIO ANDALUZ DE SALUD, priority 2016, published 2019):

Assays:
Type in all cases: in vivo, Wistar rats
COX-2 = COX-2 mRNA in frontal cortex after ethanol intoxication; conditions: ethanol-treated animals (not in vehicle-treated animals), OEA pre-treatment
Experimental: The animals were treated with intragastric (i.g.) ethanol 3 times a day using an i.g. cannula (16G needle, Fisher Scientific, Waltham, Mass., USA), following a protocol based on a slightly modified standard 4-day alcohol intoxication pattern (Bernier et al., 2002a, b) (FIG. 1A). The ethanol doses were administered every 8 h for a total time of 4 days. The rats treated with ethanol received an initial loading dose of 5 g/kg of ethanol in a 30% solution (w/v) and then a maximum maintenance dose of 3 g/kg, which were determined based on blood ethanol levels (BEL). This repeated standard alcohol intoxication paradigm kept BEL intoxication relatively constant in a range of sedation/ataxia (190 to 430 mg/dl, Table 3), according to the 6-point alcohol intoxication behavior scale (Majchrowicz, 1975). The mean dose of ethanol/rat/day (days 1-4) was 7.06 g/kg, similar to other studies (Obernier et al., 2002a, b). OEA (5 mg/kg, i.p., except initial dose of 10 mg/kg i.p.; synthesized as described in Giuffrida et al., 2000) was dissolved in the vehicle (5% Tween-80 in saline solution) and injected 10 minutes before each of the administrations of ethanol by an intragastric gavage. […] The quantitative changes in mRNA levels were estimated by means of RT-PCR, carried out in the presence of the SYBR green primer using a 20-L reaction in a Rotor-Gene (Corbett Research®, Mortlake, NSW, Australia). […]

TNF-α = TNF-α mRNA and protein (ELISA) in frontal cortex and plasma after ethanol intoxication; conditions: OEA pre-treatment
Experimental: The animals were treated with intragastric (i.g.) ethanol 3 times a day using an i.g. cannula (16G needle, Fisher Scientific, Waltham, Mass., USA), following a protocol based on a slightly modified standard 4-day alcohol intoxication pattern (Bernier et al., 2002a, b) (FIG. 1A). The ethanol doses were administered every 8 h for a total time of 4 days. The rats treated with ethanol received an initial loading dose of 5 g/kg of ethanol in a 30% solution (w/v) and then a maximum maintenance dose of 3 g/kg, which were determined based on blood ethanol levels (BEL). This repeated standard alcohol intoxication paradigm kept BEL intoxication relatively constant in a range of sedation/ataxia (190 to 430 mg/dl, Table 3), according to the 6-point alcohol intoxication behavior scale (Majchrowicz, 1975). The mean dose of ethanol/rat/day (days 1-4) was 7.06 g/kg, similar to other studies (Obernier et al., 2002a, b). OEA (5 mg/kg, i.p., except initial dose of 10 mg/kg i.p.; synthesized as described in Giuffrida et al., 2000) was dissolved in the vehicle (5% Tween-80 in saline solution) and injected 10 minutes before each of the administrations of ethanol by an intragastric gavage. The anti-inflammatory activity of OEA at 10 mg/kg per intraperitoneal route in the frontal cortex before the injection of LPS (Sayd et al., 2014) was previously referred to. In this study, OEA is repeatedly injected as a pre-treatment before each administration of ethanol. […] The quantitative changes in mRNA levels were estimated by means of RT-PCR, carried out in the presence of the SYBR green primer using a 20-L reaction in a Rotor-Gene (Corbett Research®, Mortlake, NSW, Australia). […] The levels of soluble HMGB1, TNF-α, IL-1β and MCP-1 were determined by means of a commercially available enzyme-linked immunosorbent assay kit (ELISA) (Elabscience Biotechnology Co., Ltd., China, for HMGB-1; RayBiotech®, GA, USA, for TNF-α, IL-1β, and MCP-1). The nuclear/cytosol HMGB1 fraction was determined by means of Western blot analysis.

rats = assay: Forced swim test during acute ethanol withdrawal; conditions: 48 h after last ethanol; OEA pre-treatment during intoxication
Experimental: In this third experiment (n=25), the treatment with ethanol intoxication and pre-treatment with OEA applied in experiment 2 was repeated, and the animals were subjected to elevated plus maze test 24 h and 12 days after the last forced administration of ethanol and to the forced swim test 48 h after the ethanol intoxication protocol. The rats were subjected to the forced swim test two days after the last ethanol force-feeding (see FIG. 1C for the experimental design), and specific behaviors were recorded with a digital video camera for 5 minutes. These same rats were also subjected to the elevated plus maze test equipped with infrared light photography (Panlab, Barcelona, Spain) 1 and 12 days after the last ethanol force-feeding, where the animals were allowed to freely explore the maze for 5 minutes. The tests were performed 3 h after the start of the dark phase.

Q: How did the “Levels of COX-2 mRNA with ethanol” value (COX-2) turn out when `CCCCCCCC/C=C\CCCCCCCC(=O)NCCO` [OEA, oleoylethanolamide] was run?
A: The value was “reduced”.

Q: What about the “Ethanol-induced increase in TNF-α protein levels” value (TNF-α; frontal cortex, ELISA) of the same compound?
A: The value was “not prevented”.

Q: And the “Ethanol-induced increase in TNF-α mRNA” value (TNF-α; frontal cortex)?
A: Its value is “did not prevent”.

Q: What about the “Increase in plasma TNF-α after ethanol intoxication” value (TNF-α; plasma, ELISA) of the same compound?
A: The value was “partially prevented”.

Q: What about the “Forced swim test: immobility” value (rats) of the same compound?
A: Its value is “normalizing”.

Q: And the “Forced swim test: latency” value (rats)?
A: The value was “normalizing”.

Q: And the “Forced swim test: swimming” value (rats)?
A: Its value is “normalizing”.
